The refractive index is a measure of how strongly the sample bends light.

The source of these data is the NIST ThermoML archive (doi:10.1016/j.fluid.2010.08.022).

This data set is described as follows: refractive index (Na D-line) (dimensionless). To be noted: 101.33 kPa, Standard Abbe refractometry.

± gives the expanded uncertainty stated by the source.

In the case of `CCCCCCCC/C=C\CCCCCCCC(=O)[O-].OCC[NH2+]CCO` [bis(2-hydroxyethyl)ammonium oleate], the refractive index by setting is: (278.35 K, Liquid crystal of unknown type) 1.4956 ± 0.00068; (288.25 K, Liquid crystal of unknown type) 1.49226 ± 0.00068; (298.05 K, Liquid crystal of unknown type) 1.48855 ± 0.00068; (308.22 K, Liquid crystal of unknown type) 1.48463 ± 0.00068; (318.23 K, Liquid crystal of unknown type) 1.48023 ± 0.00068; (328.05 K, Liquid crystal of unknown type) 1.47673 ± 0.00068. For the same compound, the refractive index (338.05 K, Liquid crystal of unknown type) is given as 1.47267 ± 0.00068; the refractive index (341.15 K, Liquid crystal of unknown type) is given as 1.47055 ± 0.00075; the refractive index (343.25 K, Liquid crystal of unknown type) is listed as 1.46364 ± 0.00094.
With `CCCCCCCC/C=C\CCCCCCCC(=O)O.NCCO` [2-hydroxyethylammonium oleate], the refractive index is 1.496 ± 0.00069 (278.45 K, Crystal); 1.49406 ± 0.00068 (288.35 K, Liquid crystal of unknown type); 1.48994 ± 0.00068 (298.15 K, Liquid crystal of unknown type); 1.48558 ± 0.00068 (308.25 K, Liquid crystal of unknown type); 1.48343 ± 0.00068 (313.21 K, Liquid crystal of unknown type); 1.47901 ± 0.00068 (323.45 K, Liquid crystal of unknown type). In addition, where the note is “333.25 K, Liquid crystal of unknown type”, the refractive index is 1.4747 ± 0.00068.
